Test results reported in patent publication EP0527889B1, “QUINOLIZINONE TYPE COMPOUNDS” (priority 1990, dated 1991).
≈ marks a conversion by molar mass, not a printed value.

Tests used:
[1] = tested on: Acinetobacter calcoaceticus CMX 669; experiment: In vitro antibacterial activity, MIC by agar dilution; format: cell-based; conditions: BHI agar, 35-37°C, 20-24 hours, unit assumed
In short: (§1)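 Using a Steers replicator, about 10^4 CFU of each diluted organism were spotted on agar with test compound. After ~20–24 h at 35–37°C, MIC was taken as the lowest concentration without growth compared with compound-free BHI agar; ciprofloxacin served as reference antibiotic.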

[2] = tested on: Enterobacter aerogenes ATCC 13048; experiment: as above; format: cell-based; conditions: BHI agar, 35-37°C, 20-24 hours, unit assumed
In short: as §1

[3] = tested on: Enterococcus faecium ATCC 8043; experiment: as above; format: cell-based; conditions: BHI agar, 35-37°C, 20-24 hours, unit assumed
In short: as §1

Escherichia coli DC-2 = experiment: as above; format: cell-based; conditions: BHI agar, 35-37°C, 20-24 hours, unit assumed
In short: as §1

Escherichia coli H560 = experiment: as above; format: cell-based; conditions: BHI agar, 35-37°C, 20-24 hours, unit assumed
In short: as §1

Escherichia coli JUHL = experiment: as above; format: cell-based; conditions: BHI agar, 35-37°C, 20-24 hours, unit assumed
In short: as §1

Escherichia coli KNK 437 = experiment: as above; format: cell-based; conditions: BHI agar, 35-37°C, 20-24 hours, unit assumed
In short: as §1

Escherichia coli SS = experiment: as above; format: cell-based; conditions: BHI agar, 35-37°C, 20-24 hours, unit assumed
In short: as §1

[4] = tested on: Klebsiella pneumoniae ATCC 8045; experiment: as above; format: cell-based; conditions: BHI agar, 35-37°C, 20-24 hours, unit assumed
In short: as §1

[5] = tested on: Micrococcus luteus ATCC 4698; experiment: as above; format: cell-based; conditions: BHI agar, 35-37°C, 20-24 hours, unit assumed
In short: as §1

[6] = tested on: Micrococcus luteus ATCC 9341; experiment: as above; format: cell-based; conditions: BHI agar, 35-37°C, 20-24 hours, unit assumed
In short: as §1

[7] = tested on: Providencia stuartii CMX 640; experiment: as above; format: cell-based; conditions: BHI agar, 35-37°C, 20-24 hours, unit assumed
In short: as §1

[8] = tested on: Pseudomonas aeruginosa 2862; experiment: as above; format: cell-based; conditions: BHI agar, 35-37°C, 20-24 hours, unit assumed
In short: as §1

[9] = tested on: Pseudomonas aeruginosa 5263; experiment: as above; format: cell-based; conditions: BHI agar, 35-37°C, 20-24 hours, unit assumed
In short: as §1

[10] = tested on: Pseudomonas aeruginosa A5007; experiment: as above; format: cell-based; conditions: BHI agar, 35-37°C, 20-24 hours, unit assumed
In short: as §1

[11] = tested on: Pseudomonas aeruginosa BMH10; experiment: as above; format: cell-based; conditions: BHI agar, 35-37°C, 20-24 hours, unit assumed
In short: as §1

[12] = tested on: Pseudomonas aeruginosa K799/61; experiment: as above; format: cell-based; conditions: BHI agar, 35-37°C, 20-24 hours, unit assumed
In short: as §1

[13] = tested on: Pseudomonas aeruginosa K799/WT; experiment: as above; format: cell-based; conditions: BHI agar, 35-37°C, 20-24 hours, unit assumed
In short: as §1

Pseudomonas cepacia 296I = experiment: as above; format: cell-based; conditions: BHI agar, 35-37°C, 20-24 hours, unit assumed
In short: as §1

[14] = tested on: Staphylococcus aureus 1775; experiment: as above; format: cell-based; conditions: BHI agar, 35-37°C, 20-24 hours, unit assumed
In short: as §1

[15] = tested on: Staphylococcus aureus 642A; experiment: as above; format: cell-based; conditions: BHI agar, 35-37°C, 20-24 hours, unit assumed
In short: as §1

[16] = tested on: Staphylococcus aureus A-5278; experiment: as above; format: cell-based; conditions: BHI agar, 35-37°C, 20-24 hours, unit assumed
In short: as §1

[17] = tested on: Staphylococcus aureus A5177; experiment: as above; format: cell-based; conditions: BHI agar, 35-37°C, 20-24 hours, unit assumed
In short: as §1

[18] = tested on: Staphylococcus aureus ATCC 6538P; experiment: as above; format: cell-based; conditions: BHI agar, 35-37°C, 20-24 hours, unit assumed
In short: as §1

[19] = tested on: Staphylococcus aureus CMX 553; experiment: as above; format: cell-based; conditions: BHI agar, 35-37°C, 20-24 hours, unit assumed
In short: as §1

[20] = tested on: Staphylococcus aureus NCTC 10649; experiment: as above; format: cell-based; conditions: BHI agar, 35-37°C, 20-24 hours, unit assumed
In short: as §1

[21] = tested on: Staphylococcus epidermidis 3519; experiment: as above; format: cell-based; conditions: BHI agar, 35-37°C, 20-24 hours, unit assumed
In short: as §1

[22] = tested on: Streptococcus agalactaciae CMX 508; experiment: as above; format: cell-based; conditions: BHI agar, 35-37°C, 20-24 hours, unit assumed
In short: as §1

[23] = tested on: Streptococcus bovis A5169; experiment: as above; format: cell-based; conditions: BHI agar, 35-37°C, 20-24 hours, unit assumed
In short: as §1

[24] = tested on: Streptococcus pyrogenes 2548 INDUC; experiment: as above; format: cell-based; conditions: BHI agar, 35-37°C, 20-24 hours, unit assumed
In short: as §1

[25] = tested on: Streptococcus pyrogenes CONST; experiment: as above; format: cell-based; conditions: BHI agar, 35-37°C, 20-24 hours, unit assumed
In short: as §1

[26] = tested on: Streptococcus pyrogenes EES61; experiment: as above; format: cell-based; conditions: BHI agar, 35-37°C, 20-24 hours, unit assumed
In short: as §1

[27] = tested on: Staphylococcus aureus NCTC 10649; experiment: In vivo antibacterial activity in mice (protection from lethal intraperitoneal infection); conditions: NCTC10649, 144 h, S. aureus, CF-1 female mice infected intraperitoneally with 100 times the LD50, treated at 1 and 5 hr after infection, cumulative mortalities on the sixth day
Experimental: The in vivo antibacterial activity of the compounds of the present invention was determined as follows: Aqueous solutions of the test compounds were prepared by dissolving the compound in distilled water, except for the compounds of examples 169 and 170 which were dissolved in a solution of 2% DMSO in distilled water.
After 18 hr incubation, a culture of Staphylococcus aureus NCTC 10649 was serially diluted by using 10-fold dilutions in 5% (w/v) hog gastric mucin. Cultures (0.5 mL) in a dilution from 10^-1 to 10^-8 were injected intraperitoneally into CF-1 female mice weighing approximately 20g. The LD50 (median lethal dose) for the test organism was calculated from the cumulative mortalities on the sixth day by the using the Reed and Muench procedure (Reed, L.J., and H. Muench, Amer. J. Hygiene, 27, 493 (1938)).
The above 18 hr culture was diluted in 5% (w/v) hog gastric mucin to obtain 100 times the LD50, and 0.5 mL was injected intraperitoneally into mice. The mice were treated subcutaneously (sc) or orally (po) with a specific amount of the test compound divided equally to be administered at 1 and 5 hr after infection. A group of 10 animals each for at least three dose levels was thus treated, and the deaths were recorded daily for 6 days. Ten mice were left untreated as infection control. ED50 values were calculated from the cumulative mortalities on the sixth day after infection by using the trimmed version of the Logit method ( Hamilton, M.A., R.C. Russo, and R.V. Thurston, Environ. Sci. Technol. 11, 714 (1977)).

Structure (SMILES) | MIC values [1] [mg/L] | MIC values [2] [mg/L] | MIC values [3] [mg/L] | MIC values (Escherichia coli DC-2) [mg/L] | MIC values (Escherichia coli H560) [mg/L] | MIC values (Escherichia coli JUHL) [mg/L] | MIC values (Escherichia coli KNK 437) [mg/L] | MIC values (Escherichia coli SS) [mg/L] | MIC values [4] [mg/L] | MIC values [5] [mg/L] | MIC values [6] [mg/L] | MIC values [7] [mg/L] | MIC values [8] [mg/L] | MIC values [9] [mg/L] | MIC values [10] [mg/L] | MIC values [11] [mg/L] | MIC values [12] [mg/L] | MIC values [13] [mg/L] | MIC values (Pseudomonas cepacia 296I) [mg/L] | MIC values [14] [mg/L] | further results
O=C(O)c1cc(C2CC2)c2nc(N3CCNCC3)c(F)cn2c1=O [Example 164, 9-Cyclopropyl-3-fluoro-2-(piperazin-1-yl)-6H-6-oxo-pyrido[1,2-a]pyrimidine-7-carboxylic acid] | 0.39 (≈ 1.17 µM) | 0.05 (≈ 0.15 µM) | 12.5 (≈ 37.6 µM) | 1.56 (≈ 4.69 µM) | 0.1 (≈ 0.301 µM) | 0.05 (≈ 0.15 µM) | 1.56 (≈ 4.69 µM) | 0.02 (≈ 0.0602 µM) | 0.05 (≈ 0.15 µM) | 6.2 (≈ 18.7 µM) | 12.5 (≈ 37.6 µM) | 12.5 (≈ 37.6 µM) | 100 (≈ 301 µM) | 100 (≈ 301 µM) | 0.39 (≈ 1.17 µM) | 0.39 (≈ 1.17 µM) | 0.1 (≈ 0.301 µM) | 0.39 (≈ 1.17 µM) | 3.1 (≈ 9.33 µM) | 50 (≈ 150 µM) | MIC values [15]: 1.56 mg/L (≈ 4.69 µM); MIC values [16]: 1.56 mg/L (≈ 4.69 µM); MIC values [17]: 1.56 mg/L (≈ 4.69 µM); MIC values [18]: 0.78 mg/L (≈ 2.35 µM); MIC values [19]: 1.56 mg/L (≈ 4.69 µM); MIC values [20]: 1.56 mg/L (≈ 4.69 µM); MIC values [21]: 1.56 mg/L (≈ 4.69 µM); MIC values [22]: 12.5 mg/L (≈ 37.6 µM); MIC values [23]: 12.5 mg/L (≈ 37.6 µM); MIC values [24]: 12.5 mg/L (≈ 37.6 µM); MIC values [25]: 12.5 mg/L (≈ 37.6 µM); MIC values [26]: 12.5 mg/L (≈ 37.6 µM)
CC(=O)N[C@H]1C[C@H](C)N(c2nc3c(-c4ccc(F)cc4F)cc(C(=O)O)c(=O)n3cc2F)C1 [Example 169, 2-((2S,4S)-4-Acetamido-2-methylpyrrolidin-1-yl)-9-(2,4-difluorophenyl)-3-fluoro-6H-6-oxopyrido[1,2-a]pyrimidine-7-carboxylic acid] | 3.1 (≈ 6.73 µM) | 3.1 (≈ 6.73 µM) | 1.56 (≈ 3.39 µM) | 12.5 (≈ 27.1 µM) | 0.78 (≈ 1.69 µM) | 0.78 (≈ 1.69 µM) | 6.2 (≈ 13.5 µM) | 0.005 (≈ 0.0109 µM) | 0.39 (≈ 0.847 µM) | 0.39 (≈ 0.847 µM) | 3.1 (≈ 6.73 µM) | 25 (≈ 54.3 µM) | > 100 | > 100 | 3.1 (≈ 6.73 µM) | 3.1 (≈ 6.73 µM) | 0.39 (≈ 0.847 µM) | 3.1 (≈ 6.73 µM) | 25 (≈ 54.3 µM) | 25 (≈ 54.3 µM) | MIC values [15]: 0.39 mg/L (≈ 0.847 µM); MIC values [16]: 0.2 mg/L (≈ 0.434 µM); MIC values [17]: 0.2 mg/L (≈ 0.434 µM); MIC values [18]: 0.1 mg/L (≈ 0.217 µM); MIC values [19]: 0.39 mg/L (≈ 0.847 µM); MIC values [20]: 0.2 mg/L (≈ 0.434 µM); MIC values [21]: 0.39 mg/L (≈ 0.847 µM); MIC values [22]: 0.78 mg/L (≈ 1.69 µM); MIC values [23]: 3.1 mg/L (≈ 6.73 µM); MIC values [24]: 0.39 mg/L (≈ 0.847 µM); MIC values [25]: 0.39 mg/L (≈ 0.847 µM); MIC values [26]: 0.78 mg/L (≈ 1.69 µM); ED50 ([27]; po): > 48 mg/kg; ED50 ([27]; sc): 7.5 mg/kg
